From patent US9353090B2, “Heterocyclic carboxylic acids as activators of soluble guanylate cyclase” (Boehringer Ingelheim International GmbH, priority 2014, dated 2016)
Values after ≈ are worked out from the molar mass of the structure shown.

Columns and labels:
[1] = target: human soluble guanylate cyclase alpha 1 and beta 1 subunits (sGC) (Homo sapiens (Human), UniProt Q02108+Q02153); experiment: sGC cellular activator assay (cGMP, HTRF), in the presence and absence of 50% human serum; type: cell-based; conditions: CHO cells stably expressing human sGC alpha 1/beta 1, preincubated with 40 microM ODQ; cGMP by HTRF; Table 2 does not state whether with or without 50% human serum
Method: The sGC cellular activator assay is performed in the presence and absence of 50% human serum (HS) using Chinese hamster ovary cells that have been stably transfected to express the human soluble guanylate cyclase alpha 1 and beta 1 subunits (sGC). Cells are preincubated with 40 microM 1H-[1,2,4]oxadiazolo[4,3-a]quinoxalin-1-one (ODQ), an sGC inhibitor, for one h in buffer containing 0.1% bovine serum albumin and 3-isobutyl-1-methylxanthine (IBMX). Concentration response curves are prepared for test compounds in DMSO. An intermediate dilution of the compounds is performed in either buffer containing IBMX or type AB HS containing IBMX. Diluted compounds are added to cells and they are incubated at room temperature for thirty min. cGMP is measured using a CisBio homogeneous time resolved fluorescence kit and the EC50 is calculated for each compound.
Representative compounds of the present invention were tested for activity the above assay. Preferred compounds have an EC50 of <1,000 nM in the above assay and more preferred compounds have an EC50<200 nM.

[2] = Human liver microsome (HLM) metabolic stability assay; type: in vitro ADME; conditions: human liver microsomes
Method: The 5 time point, high-throughput human liver microsome (HLM) metabolic stability assay is designed to determine in vitro compound metabolism. Compounds are incubated with HLMs at a concentration of 1 uM, at 37° C., for a total of 60 min. The percent of compound remaining at 5, 15, 30, and 60 min is used to calculate the t1/2 (min), CLint (mL/min/kg), CLh (mL/min/kg), and % Qh. The assay is based on a 96-well format and can accommodate up to 92 compounds per plate (n=1).
Using the 96-well multi-channel head, the Biomek FX, equipped with a Peltier heating block/shaker, is programmed to accomplish the following steps: • 1. Pipette 175 uL of 1.15 mg/mL microsomes into each of the 96 conical inserts (Analytical Sales and Products, catalog number 96PL05) that fit into the plate of the Peltier heating block/shaker (the incubation plate) • 2. Add 5 uL of compounds from the assay plate to the microsomes and shake the mixture at 600 rpm at 42.1° C. for 10 min (a setting of 42.1° C. on the Peltier is required for the samples to incubate at 37° C.) • 3. After 10 min, prompt the user to add the NADPH plate to the deck and add 20 uL from the NADPH plate to the incubation plate to start the reaction • 4. Add 215 uL of 100%, cold acetonitrile containing an internal standard(s) to a 0 minute, 5 minute, 15 minute, 30 minute, and 60 minute “quench” plate • 5. At 0 min, 5 min, 15 min, 30 min, and 60 min into the incubation, aspirate 12 uL from the incubation mixture and add it to the quench solution to stop the reaction • 6. Add 185 uL HPLC grade water to each well of the 0, 5, 15, 30 and 60 minute quench plates to dilute compounds to the appropriate concentration for the mass spectrometer
After all time points are collected, the quench plates are sealed with 96-well pierceable plate mats or heat sealing foil and centrifuged at 3000 rpm for 15 min to pellet the microsomes.
The plates are analyzed using LC/MS/MS with electron spray ionization (ESI) and the previously determined MRM transitions. The LC method includes the following parameters:
Using an Excel template in Activitybase, the peak areas corresponding to 5, 15, 30 and 60 min are compared to the peak area at 0 min to calculate the percent of remaining compound using the following equation:
Percent compound remaining=(AUC at Time t min/AUC at Time 0 min)×100 where t=0, 5, 15, 30 or 60 min.
Time (min) is plotted against the natural logarithm (Ln) of the percent compound remaining to determine the slope. The slope is used to calculate t1/2 (min) using the equation, t1/2=0.693/slope.
Clh, Hepatic clearance • Hepatic flow*f(u)*Clint/(hepatic flow+f(u)*Clint)
Qh, % Hepatic blood flow • (Clh/Hepatic flow)*100
Preferred compounds have % Qh values of less than 24.

[3] = physchem; conditions: kinetic from dmso stock
[4] = pH 2.2, aqueous buffer, Solubility (pH 2.2)
[5] = pH 4.5, aqueous buffer, Solubility (pH 4.5)
[6] = pH 6.8, aqueous buffer, Solubility (pH 6.8)

Sequence of human soluble guanylate cyclase alpha 1 and beta 1 subunits (sGC) (Q02108 whole entry partner): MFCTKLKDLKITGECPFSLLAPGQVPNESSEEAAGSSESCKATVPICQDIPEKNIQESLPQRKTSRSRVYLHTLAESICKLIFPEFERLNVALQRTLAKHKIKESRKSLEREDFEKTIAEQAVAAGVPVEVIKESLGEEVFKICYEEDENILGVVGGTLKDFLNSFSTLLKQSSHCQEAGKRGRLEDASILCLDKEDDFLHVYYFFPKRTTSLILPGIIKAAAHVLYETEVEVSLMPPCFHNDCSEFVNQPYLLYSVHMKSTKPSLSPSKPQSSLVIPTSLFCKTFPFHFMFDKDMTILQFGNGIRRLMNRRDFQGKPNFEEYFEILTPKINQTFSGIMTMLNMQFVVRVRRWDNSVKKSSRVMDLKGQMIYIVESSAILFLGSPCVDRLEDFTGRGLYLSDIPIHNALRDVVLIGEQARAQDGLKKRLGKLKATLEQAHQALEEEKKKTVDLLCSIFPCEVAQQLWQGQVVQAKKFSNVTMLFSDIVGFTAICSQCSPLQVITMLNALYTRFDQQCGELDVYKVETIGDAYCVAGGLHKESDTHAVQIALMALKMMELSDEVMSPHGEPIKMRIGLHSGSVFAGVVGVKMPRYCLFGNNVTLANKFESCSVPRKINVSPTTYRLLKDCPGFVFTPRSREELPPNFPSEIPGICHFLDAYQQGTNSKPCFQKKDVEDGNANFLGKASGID
Sequence of human soluble guanylate cyclase alpha 1 and beta 1 subunits (sGC) (Q02153 whole entry): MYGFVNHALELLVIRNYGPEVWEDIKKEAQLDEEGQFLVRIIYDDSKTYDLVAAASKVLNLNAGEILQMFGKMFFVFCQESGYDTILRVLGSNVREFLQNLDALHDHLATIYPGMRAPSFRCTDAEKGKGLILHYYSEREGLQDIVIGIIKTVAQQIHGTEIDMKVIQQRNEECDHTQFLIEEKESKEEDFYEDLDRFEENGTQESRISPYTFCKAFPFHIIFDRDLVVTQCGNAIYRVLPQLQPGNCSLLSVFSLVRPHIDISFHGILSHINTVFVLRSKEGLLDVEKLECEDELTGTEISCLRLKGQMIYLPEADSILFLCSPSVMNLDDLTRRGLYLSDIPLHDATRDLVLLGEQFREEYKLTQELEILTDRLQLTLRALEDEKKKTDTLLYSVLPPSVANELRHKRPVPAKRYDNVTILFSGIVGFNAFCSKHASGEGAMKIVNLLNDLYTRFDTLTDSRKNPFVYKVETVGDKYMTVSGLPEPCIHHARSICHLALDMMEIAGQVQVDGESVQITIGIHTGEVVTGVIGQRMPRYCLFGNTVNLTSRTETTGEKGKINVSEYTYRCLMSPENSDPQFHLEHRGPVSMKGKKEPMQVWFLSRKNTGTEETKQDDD

Row | EC50 [1] | Metabolic stability (Qh %), % hepatic blood flow [2] | solubility at 24 h [3, 4] | solubility at 24 h [3, 5] | solubility at 24 h [3, 6] | SMILES
1 | 9 nM | <24% | 120 µg/mL (≈ 204 µM) | 6.3 µg/mL (≈ 10.7 µM) | 0.3 µg/mL (≈ 0.51 µM) | Cc1ccc(OCc2cc(C)c3c(c2C)CCN(C2CCCOC2)C3)c(-c2csc(N3CC[C@@]4(C(=O)O)C[C@H]4C3)n2)c1 (stereo partly drawn) [Compound 128]
2 | 2 nM | 55% | 120 µg/mL (≈ 209 µM) | 67 µg/mL (≈ 117 µM) | 28 µg/mL (≈ 48.8 µM) | Cc1cccc(-c2csc(N3CC[C@@]4(C(=O)O)C[C@H]4C3)n2)c1OCc1ccc2c(c1C)CCN(C1CCCOC1)C2 (stereo partly drawn) [Compound 87]
3 | 57 nM | 26% | 110 µg/mL (≈ 197 µM) | 59 µg/mL (≈ 105 µM) | 9.9 µg/mL (≈ 17.7 µM) | Cc1ccc(OCc2ccc3c(c2C)CCN(C2CCOCC2)C3)c(-c2csc(N3C[C@@H]4C[C@]4(C(=O)O)C3)n2)c1 [Compound 146]
4 | 4 nM | <24% | 110 µg/mL (≈ 192 µM) | 65 µg/mL (≈ 113 µM) | 25 µg/mL (≈ 43.6 µM) | Cc1ccc(OCc2ccc3c(c2C)CCN(C2CCOCC2)C3)c(-c2csc(N3C[C@@H]4C[C@]4(C(=O)O)[C@H]3C)n2)c1 [Compound 154]
5 | 135 nM | <24% | 110 µg/mL (≈ 197 µM) | 71 µg/mL (≈ 127 µM) | 54 µg/mL (≈ 96.5 µM) | Cc1cc(C)c(OCc2ccc3c(c2)CCN(C2CCOCC2)C3)c(-c2csc(N3C[C@@H]4C[C@]4(C(=O)O)C3)n2)c1 [Compound 151]
6 | 18 nM | <24% | 110 µg/mL (≈ 197 µM) | 76 µg/mL (≈ 136 µM) | 62 µg/mL (≈ 111 µM) | Cc1cccc(-c2csc(N3C[C@@H]4C[C@]4(C(=O)O)C3)n2)c1OCc1ccc2c(c1C)CCN(C1CCOCC1)C2 [Compound 136]

Continued, compound first:

Row | SMILES | EC50 [1] | Metabolic stability (Qh %), % hepatic blood flow [2] | solubility at 24 h [3, 4] | solubility at 24 h [3, 5] | solubility at 24 h [3, 6]
7 | COc1cc(COc2c(C)cccc2-c2csc(N3CC[C@H](C(=O)O)[C@H](OC)C3)n2)cc2c1CN(C1CCOCC1)CC2 [Compound 177] | 47 nM | <24% | 140 µg/mL (≈ 230 µM) | 100 µg/mL (≈ 165 µM) | 96 µg/mL (≈ 158 µM)
8 | Cc1cccc(-c2cccc(N3C[C@@H]4C[C@]4(C(=O)O)C3)n2)c1OCc1ccc2c(c1)CCN(C1CCOCC1)C2 [Compound 20] | 21 nM | <24% | 110 µg/mL (≈ 204 µM) | 96 µg/mL (≈ 178 µM) | 64 µg/mL (≈ 119 µM)
9 | Cc1c(COc2ccccc2-c2cccc(N3CC[C@@]4(C(=O)O)C[C@H]4C3)n2)ccc2c1CCN([C@@H]1CCOC1)C2 [Compound 8] | 12 nM | 49% | 150 µg/mL (≈ 278 µM) | 110 µg/mL (≈ 204 µM) | 44 µg/mL (≈ 81.5 µM)
10 | Cc1c(COc2ccccc2-c2cccc(N3CC[C@@]4(C(=O)O)C[C@H]4C3)n2)ccc2c1CCN(C[C@@H]1COCCO1)C2 [Compound 10] | 9 nM | 32% | 130 µg/mL (≈ 228 µM) | 110 µg/mL (≈ 193 µM) | 55 µg/mL (≈ 96.5 µM)
11 | COC[C@H]1N(c2cccc(-c3cccc(C)c3OCc3ccc4c(c3)[C@@H](C)CN(C3CCOCC3)CC4)n2)C[C@@H]2C[C@@]21C(=O)O [Compound 225] | 5 nM | 25% | 136 µg/mL (≈ 222 µM) | 135 µg/mL (≈ 220 µM) | 129 µg/mL (≈ 211 µM)
12 | Cc1cccc(-c2cccc(N3CC[C@H](C(=O)O)[C@@H]4OCCC[C@H]43)n2)c1OCc1ccc2c(c1C)CCN(C1COC1)CC2 [Compound 336] | 54 nM | 32% | 69.9 µg/mL (≈ 117 µM) | 37.6 µg/mL (≈ 62.9 µM) | 30 µg/mL (≈ 50.2 µM)
